We go through eleven molecules from ChEMBL document CHEMBL5226295, “Targeting Bromodomain and Extraterminal Proteins for Drug Discovery: From Current Progress to Technological Development” (J Med Chem, 2021).

For one experiment, the species on record is Homo sapiens. Kind of experiment: Selectivity for BRD4 BD1 (unknown origin) over BRD4 BD2 (unknown origin) assessed as fold change.
Experiment [1] has as its target Poly [ADP-ribose] polymerase 1 (Homo sapiens) (UniProt P09874). In words: Inhibition of PARP1 (unknown origin) using NAD+ as substrate incubated for 60 mins by ELISA. In general terms: In an ELISA, binding on a coated surface is turned into a signal by an enzyme label.
The target in experiment [2] is T1, Bromodomain-containing protein 4 (Homo sapiens, UniProt O60885). In words: Inhibition of recombinant human BRD4 BD2 measured after 2 hrs by TR-FRET assay. (In TR-FRET formats the signal depends on donor and acceptor labels being close together.)
The target in experiment [3] is T1, Bromodomain-containing protein 4. Kind of experiment: Inhibition of recombinant human BRD4 BD1 measured after 2 hrs by TR-FRET assay.
The target of experiment [4] is von Hippel-Lindau disease tumor suppressor/Bromodomain-containing protein 4 (Homo sapiens, UniProt O60885+P40337). Kind of experiment: Protac activity at BRD4/VHL E3 ligase in human SU-DHL-4 cells assessed as induction of BRD4 degradation incubated for 14 hrs by immunoblot analysis. The experiment is classed as cell-based. In general terms: Immunoblotting shows a protein as a band on a membrane.
Chain of von Hippel-Lindau disease tumor suppressor/Bromodomain-containing protein 4 (P40337 whole entry, looked up, other chains not shown): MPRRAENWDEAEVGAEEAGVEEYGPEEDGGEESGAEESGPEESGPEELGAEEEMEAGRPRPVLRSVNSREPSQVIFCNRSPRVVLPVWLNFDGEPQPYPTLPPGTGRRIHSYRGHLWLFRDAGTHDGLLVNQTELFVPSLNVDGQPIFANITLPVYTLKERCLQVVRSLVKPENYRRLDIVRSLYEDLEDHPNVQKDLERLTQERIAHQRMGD

Experiment [5] addresses T1, Bromodomain-containing protein 4. Kind of experiment: Inhibition of poly His-tagged BRD4 BD1 (unknown origin) ([…] residues) by TR-FRET assay.
For experiment [6] the target is unchanged. In words: Inhibition of poly His-tagged BRD4 BD2 (unknown origin) (348 to 455 residues) by TR-FRET assay.
The target is the same in experiment [7]. Kind of experiment: Inhibition of GST-tagged BRD4 BD1 (unknown origin) using H4(1 to 21 residues) biotinylated peptide as substrate at 10 uM incubated for 3 hrs by HTFR assay.
Another experiment addresses Histone deacetylase 3 (Homo sapiens, UniProt O15379). Kind of experiment: Inhibition of recombinant human HDAC3 using Boc-Lys(Ac)-AMC as substrate preincubated for 15 mins followed by substrate addition and measured after 60 mins by fluorescence based assay.
The target in experiment [8] is T1, Bromodomain-containing protein 4. In words: Inhibition of poly His-tagged BRD4 BD2 (unknown origin) (348 to 455 residues) by BROMOscan assay.
Experiment [9] has the same target. In words: Inhibition of poly His-tagged BRD4 BD1 (unknown origin) ([…] residues) by BROMOscan assay.
Experiment [10] deals with Protein cereblon/Bromodomain-containing protein 4 (Homo sapiens, UniProt O60885+Q96SW2). Kind of experiment: Protac activity at CRBN/BRD4 in human SUM149PT assessed as induction of BRD4 degradation incubated for 18 hrs by immunoblot analysis. The experiment is classed as cell-based.
Chain of Protein cereblon/Bromodomain-containing protein 4 (Q96SW2 whole entry, looked up, other chains not shown): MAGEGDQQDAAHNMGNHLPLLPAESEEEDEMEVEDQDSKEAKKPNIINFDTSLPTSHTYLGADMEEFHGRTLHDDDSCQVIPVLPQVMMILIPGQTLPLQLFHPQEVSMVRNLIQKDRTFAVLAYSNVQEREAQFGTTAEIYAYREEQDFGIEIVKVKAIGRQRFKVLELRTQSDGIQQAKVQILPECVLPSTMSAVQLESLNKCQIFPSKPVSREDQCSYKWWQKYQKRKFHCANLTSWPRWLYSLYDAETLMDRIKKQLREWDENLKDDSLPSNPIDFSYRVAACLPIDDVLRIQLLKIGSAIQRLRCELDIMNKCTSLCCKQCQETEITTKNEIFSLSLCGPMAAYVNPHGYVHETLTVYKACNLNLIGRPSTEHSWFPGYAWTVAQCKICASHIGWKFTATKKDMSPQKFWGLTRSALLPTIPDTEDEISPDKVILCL
A short description of experiment [11]: Antiproliferative activity against human Triple-negative breast cancer cells assessed as cell growth inhibition incubated for 4 days by CellTiter Glo assay. The experiment is classed as functional, cell-based. The following applies: 96 h.
The target of experiment [12] is T1, Bromodomain-containing protein 4. In words: Binding affinity to BRD4 BD2 (unknown origin) assessed as dissociation constant by ITC analysis.
For experiment [13] the target is unchanged. Kind of experiment: Binding affinity to BRD4 BD1 (unknown origin) assessed as dissociation constant by ITC analysis.

Chain of Poly [ADP-ribose] polymerase 1 (Homo sapiens) (P09874 whole entry): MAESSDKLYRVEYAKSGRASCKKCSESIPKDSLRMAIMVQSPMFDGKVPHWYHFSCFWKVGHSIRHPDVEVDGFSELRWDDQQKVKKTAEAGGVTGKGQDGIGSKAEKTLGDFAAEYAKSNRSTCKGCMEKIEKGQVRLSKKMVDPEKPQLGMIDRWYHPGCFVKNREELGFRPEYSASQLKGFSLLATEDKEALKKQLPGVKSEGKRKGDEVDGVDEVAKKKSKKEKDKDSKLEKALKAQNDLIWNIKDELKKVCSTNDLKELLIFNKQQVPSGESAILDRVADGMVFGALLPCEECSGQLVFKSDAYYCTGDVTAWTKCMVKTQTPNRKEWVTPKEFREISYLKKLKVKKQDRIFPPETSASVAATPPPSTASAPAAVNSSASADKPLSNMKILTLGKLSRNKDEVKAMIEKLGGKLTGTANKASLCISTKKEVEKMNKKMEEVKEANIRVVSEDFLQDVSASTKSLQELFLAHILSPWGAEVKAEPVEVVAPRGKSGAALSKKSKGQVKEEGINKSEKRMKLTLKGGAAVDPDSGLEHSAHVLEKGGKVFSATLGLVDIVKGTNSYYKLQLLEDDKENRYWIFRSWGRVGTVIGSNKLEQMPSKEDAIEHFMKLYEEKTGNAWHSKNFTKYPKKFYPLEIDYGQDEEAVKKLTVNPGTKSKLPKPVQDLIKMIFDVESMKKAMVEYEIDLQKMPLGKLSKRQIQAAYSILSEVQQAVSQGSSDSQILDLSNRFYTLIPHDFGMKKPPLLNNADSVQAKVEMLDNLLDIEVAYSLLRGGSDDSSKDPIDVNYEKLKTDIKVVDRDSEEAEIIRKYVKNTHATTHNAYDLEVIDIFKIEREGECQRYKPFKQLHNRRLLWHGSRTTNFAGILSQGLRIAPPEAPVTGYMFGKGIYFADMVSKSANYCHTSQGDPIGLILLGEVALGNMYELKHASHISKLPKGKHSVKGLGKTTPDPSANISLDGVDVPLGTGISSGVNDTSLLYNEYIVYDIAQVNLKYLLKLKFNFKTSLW
Chain of Histone deacetylase 3 (O15379 whole entry, the tested form may be a part): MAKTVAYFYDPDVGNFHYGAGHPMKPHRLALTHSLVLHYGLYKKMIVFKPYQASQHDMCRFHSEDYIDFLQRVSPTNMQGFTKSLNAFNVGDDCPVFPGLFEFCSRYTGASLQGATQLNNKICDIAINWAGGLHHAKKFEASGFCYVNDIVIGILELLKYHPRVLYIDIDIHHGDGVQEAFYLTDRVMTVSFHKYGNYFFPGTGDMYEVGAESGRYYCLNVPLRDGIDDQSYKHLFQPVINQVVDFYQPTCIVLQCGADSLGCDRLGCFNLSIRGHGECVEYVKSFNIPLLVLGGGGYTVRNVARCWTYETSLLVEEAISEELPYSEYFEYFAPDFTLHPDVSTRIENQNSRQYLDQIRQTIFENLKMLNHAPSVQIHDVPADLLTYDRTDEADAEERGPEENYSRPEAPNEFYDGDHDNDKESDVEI

Turning to `CC(=O)Nc1c(F)cc(C(=O)N[C@H]2CC[C@H](O)CC2)cc1O[C@@H](C)c1ccccc1`, the Selectivity ratio in the experiment filed under Homo sapiens is more than 300.
`COc1cc(OC)c2c(=O)[nH]c(-c3ccc(OCCOc4ccccc4C(N)=O)cc3)nc2c1` returned an inhibition in experiment [1] of less than 60%. Also, the values for the IC50 in experiment [2] and in experiment [3] were 379 nM and 440 nM, respectively.
For `Cc1sc2c(c1C)C(c1ccc(Cl)cc1)=N[C@@H](CC(=O)NCCOCCOCCNC(=O)c1cccc(S(=O)(=O)Nc3ccc(C)c4c(C#N)c[nH]c34)c1)c1nnc(C)n1-2`, the DC50 in [4] amounted to 10800 nM.
Consider `CC(=O)N1c2ccc(-c3cc[nH]n3)cc2[C@H](Nc2ccc(C#N)cc2)C[C@@H]1C`, for which the Kd came to 301 nM in experiment [5] and 2 nM in experiment [6].
Consider `COCc1nc2cnc3cc(-c4c(C)noc4C)c(OC[C@H]4CCNC4)cc3c2n1[C@H](C)c1ccccc1`, for which the Selectivity ratio in the experiment listed under Homo sapiens was more than 130.
`Cc1noc(C)c1-c1ccc2c(c1)C(Cc1ccc(F)cc1)CN2CCCCCCC(=O)NO` (configuration not stated) came in with an inhibition in [7] of 88%. In addition, the half-maximal inhibitory concentration (IC50) on Histone deacetylase 3 worked out at 5 nM.
Consider `COC(=O)c1ccc(N[C@@H]2C[C@H](C)N(C(C)=O)c3ccc(-c4cccc(NC(C)=O)c4)cc32)cc1`, for which the IC50 in experiment [8] turned out to be 0.42 nM; in experiment [9] it was 27 nM.
In the case of `Cc1sc2c(c1C)C(c1ccc(Cl)cc1)=N[C@@H](CC(=O)NCCCCNC(=O)COc1cccc3c1C(=O)N(C1CCC(=O)NC1=O)C3O)c1nnc(C)n1-2` (some centres not stated), the EC50 in experiment [10] is 430 nM.
Take `CCn1nc(C2CC2)cc1Nc1nc(C(=O)NCCCOCCOCCOCCCNc2cccc3c2C(=O)N(C2CCC(=O)NC2=O)C3=O)nc2[nH]c3cc(-c4c(C)noc4C)c(OC)cc3c12` (configuration not stated): in [11], the IC50 is less than 10 nM.
Turning to `CC1=C(C)C2C(c3ccc(Cl)cc3)N[C@@](C)(CC(=O)NCCOCCOCCOCC(=O)N[C@H](C(=O)N3C[C@H](O)C[C@H]3C(=O)NCc3ccc(-c4scnc4C)cc3)C(C)(C)C)c3nnc(C)n3C2S1` (some centres not stated), the Kd in experiment [12] came out at 120 nM; in experiment [13], 382 nM.
Take `CC(=O)N[C@H](CSCCCCCCNC(=O)C[C@H]1N=C(c2ccc(Cl)cc2)c2c(sc(C)c2C)-n2c(C)nnc21)C(=O)N1C[C@@H](O)C[C@@H]1C(=O)NCc1ccc(-c2scnc2C)cc1`: in experiment [13], the Kd is 44 nM.

As usually defined, the inhibition is the change of the read-out against control, counted positive when it falls. As usually defined, the IC50 is the midpoint of a concentration-inhibition curve. One may read the DC50 as the midpoint of the concentration-degradation curve. As usually defined, the Kd is the equilibrium constant for the complex coming apart. Broadly, the EC50 is the concentration giving half of the maximal effect.
